Data: patent US5798442A, “Peptidyl derivatives as inhibitors of pro-apoptotic cysteine proteinases” (Merck Frosst Canada, Inc., priority 1995, dated 1998)
“Also recorded” adds a separate entry of the source.

Assays:
[1] = target: T1, PARP cleavage activity in apoptotic osteosarcoma cell extracts (Homo sapiens, UniProt P42574); assay: [35S]PARP cleavage by cytosolic extracts of apoptotic osteosarcoma cells; format: biochemical; conditions: for IC50: apoptotic osteosarcoma cell extracts, [35S]PARP, read-out: IC50 for inhibition of PARP cleavage activity; for effect on proteolytic cleavage of PARP: FIG. 2a, 5 mM N-ethylmaleimide, 5 mM iodoacetamide, 10 μM E-64
T1 construct: 10 μg protein from the cytosol fraction of apoptotic osteosarcoma cells (from 7 day, post-confluent cultures); endogenous in cells; host or cells: human osteosarcoma cells 143.98.2 (ATCC CRL 11226), 7 day post-confluent (apoptotic), cytosol fraction
T1 sequence (P42574 29-175 limits assumed): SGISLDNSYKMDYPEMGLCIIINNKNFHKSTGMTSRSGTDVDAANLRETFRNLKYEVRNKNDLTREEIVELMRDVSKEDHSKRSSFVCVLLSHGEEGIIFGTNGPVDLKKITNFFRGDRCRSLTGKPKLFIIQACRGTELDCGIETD
T1 sequence (P42574 176-277 limits assumed): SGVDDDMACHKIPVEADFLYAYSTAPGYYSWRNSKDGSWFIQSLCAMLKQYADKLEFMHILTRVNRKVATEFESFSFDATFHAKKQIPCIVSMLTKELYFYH

[2] = target: T2, apopain/CPP32 (Homo sapiens, UniProt P42574); assay: continuous fluorometric assay with Ac-DEVD-AMC and purified apopain; format: biochemical
T2 construct: cleavage between Asp^28 -Ser^29 and Asp^175 -Ser^176; cleavage sites which yield the p17 and p12 subunits from the CPP32 proenzyme; endogenous in cells; host or cells: THP-1 cells (ATCC TIB 202)
T2 sequence (P42574 29-175 limits assumed): T1 sequence (P42574 29-175 limits assumed)
T2 sequence (P42574 176-277 limits assumed): T1 sequence (P42574 176-277 limits assumed)

[3] = test system: intact cells; assay: activity in intact cells; format: cell-based

Row | Structure (SMILES) | IC50 [1] [µM] | effect on proteolytic cleavage of PARP [1] | also measured
1 | CC(=O)N[C@@H](CC(=O)O)C(=O)N[C@@H](CCC(=O)O)C(=O)N[C@H](C(=O)N[C@@H](CC(=O)O)C(=O)O)C(C)C [Ac-DEVD-COOH, N-Acetyl-aspartyl-glutamyl-valinyl-aspartic acid] | > 10 |  | 
2 | CC(=O)N[C@@H](Cc1ccc(O)cc1)C(=O)N[C@H](C(=O)N[C@@H](C)C(=O)N[C@H](C=O)CC(=O)O)C(C)C [Ac-YVAD-CHO] | > 10 |  | Ki [2]: 12 µM
3 | CC(=O)N[C@@H](CC(=O)O)C(=O)N[C@@H](CCC(=O)O)C(=O)N[C@H](C(=O)NC(C=O)CC(=O)O)C(C)C (stereo partly drawn) [Ac-DEVD-CHO, N-(N-Acetyl-L-aspartyl-L-glutamyl-L-valinyl)-3-amino-3-formylpropionic acid] |  |  | enzyme activity at infinite time ([2]; 50 nM inhibitor, 1×Km Ac-DEVD-AMC): complete inhibition; also recorded: nearly complete suppression; activity in intact cells [3]: inactive; membrane permeability [3]: membrane impermeable
4 | CCN1C(=O)C=CC1=O [N-ethylmaleimide] |  | abolished | 
5 | CC(C)C[C@H](NC(=O)[C@H]1O[C@@H]1C(=O)O)C(=O)NCCCCN=C(N)N [Example E-64] |  | not | 
6 | NC(=O)CI [iodoacetamide] |  | abolished | 
